{"source": "patent US11505543B2", "about": "“4-oxo-3,4-dihydroquinazoline compounds as inhibitors of human immunodeficiency virus replication” (VIIV HEALTHCARE UK (NO.5) LIMITED, priority 2018, dated 2022)", "key": {"[1]": {"test_system": "recombinant NL4-3 virus (nef section replaced with Renilla luciferase gene) in MT-2 cells", "experiment": "HIV cell culture assay (antiviral activity, luciferase readout)", "format": "cell-based", "conditions": "Renilla, NL43, MT-2 cells infected for 4-5 days with recombinant NL4-3 Renilla luciferase virus, serial dilutions of compound", "protocol": "HIV cell culture assay—MT-2 cells, 293T cells and the proviral DNA clone of NL4-3 virus were obtained from the NIH AIDS Research and Reference Reagent Program. MT-2 cells were propagated in RPMI 1640 media supplemented with 10% heat inactivated fetal bovine serum (FBS), 100 μg/ml penicillin G and up to 100 units/mL streptomycin. The 293T cells were propagated in DMEM media supplemented with 10% heat inactivated FBS, 100 μg/mL penicillin G and 100 μg/mL streptomycin. A recombinant NL4-3 proviral clone, in which a section of the nef gene was replaced with the Renilla luciferase gene, was used to make the reference virus used in these studies. The recombinant virus was prepared through transfection of the recombinant NL4-3 proviral clone into 293T cells using Transit-293 Transfection Reagent from Mirus Bio LLC (Madison, Wis.). Supernatent was harvested after 2-3 days and the amount of virus present was titered in MT-2 cells using luciferase enzyme activity as a marker by measuring luciferase enzyme activity. Luciferase was quantitated using the EnduRen Live Cell Substrate from Promega (Madison, Wis.). Antiviral activities of compounds toward the recombinant virus were quantified by measuring luciferase activity in MT-2 cells infected for 4-5 days with the recombinant virus in the presence of serial dilutions of the compound.\nThe 50% effective concentration (EC50) was calculated by using the exponential form of the median effect equation where (Fa)=1/[1+(ED50/drug conc.)^m] (Johnson VA, Byington RT. Infectivity Assay. In Techniques in HIV Research. ed. Aldovini A, Walker BD. 71-76. New York: Stockton Press. 1990). Curve fitting and analysis were performed with ActivityBase XE Runner software version 9.1.0.4 using model 203 (ID Business Solutions, LTD, Guildford, UK)."}, "[2]": {"experiment": "Compound cytotoxicity, XTT-based colorimetric assay", "format": "cell-based", "conditions": "human, uninfected MT2 cells, day 4, XTT", "protocol": "Compound cytotoxicity and the corresponding CC50 values were determined using the same protocol as described in the antiviral assay except that uninfected cells were used. Cytotoxicity was assessed on day 4 in uninfected MT2 cells by using a XTT (2,3-bis[2-Methoxy-4-nitro-5-sulfophenyl]-2H-tetrazolium-5-carboxyanilide inner salt)-based colorimetric assay (Sigma-Aldrich, St Louis, Mo.)."}}, "data": [{"compound": "Cn1nc(NS(C)(=O)=O)c2c(Cl)ccc(-n3c([C@H](Cc4cc(F)cc(F)c4)NC(=O)Cn4nc(C(F)F)c5c4C(F)(F)[C@@H]4C[C@H]54)nc4cc(-c5ccccc5Cl)ccc4c3=O)c21", "note": "(atropisomer, axis not shown; (aR)) [Example 43, N-((S)-1-(3-(4-chloro-1-methyl-3-(methylsulfonamido)-1H-indazol-7-yl)-7-(2-chlorophenyl)-4-oxo-3,4-dihydroquinazolin-2-yl)-2-(3,5-difluorophenyl)ethyl)-2-((3bS,4aR)-3-(difluoromethyl)-5,5-difluoro-3b,4,4a,5-tetrahydro-1H-cyclopropa[3,4]cyclopenta[1,2-c]pyrazol-1-yl)acetamide]", "values": [{"measurement": "EC50", "setting": "[1]", "result": 0.69, "unit": "nM"}, {"measurement": "CC50 at 4 day", "setting": "[2]", "result": "> 1000", "unit": "nM"}]}, {"compound": "O=C(Cn1ccc(C2CC2)n1)N[C@@H](Cc1cc(F)cc(F)c1)c1nc2cc(-c3ccccc3Oc3ccccc3)ccc2c(=O)n1-c1ccc(S(=O)(=O)N2CCOCC2)cc1", "note": "[Example 42, (S)-2-(3-cyclopropyl-1H-pyrazol-1-yl)-N-(2-(3,5-difluorophenyl)-1-(3-(4-(morpholinosulfonyl)phenyl)-4-oxo-7-(2-phenoxyphenyl)-3,4-dihydroquinazolin-2-yl)ethyl)acetamide]", "values": [{"measurement": "EC50", "setting": "[1]", "result": 54, "unit": "nM"}, {"measurement": "CC50 at 4 day", "setting": "[2]", "result": "> 1000", "unit": "nM"}]}, {"compound": "COc1ccc(-c2ccc3c(=O)n(-c4ccc(Cl)c5c(NS(C)(=O)=O)nn(C)c45)c([C@H](Cc4cc(F)cc(F)c4)NC(=O)Cn4nc(C(F)F)c5c4C(F)(F)[C@@H]4C[C@H]54)nc3c2)cc1", "note": "[Example 156, N-((S)-1-(3-(4-chloro-1-methyl-3-(methylsulfonamido)-1H-indazol-7-yl)-7-(4-methoxyphenyl)-4-oxo-3,4-dihydroquinazolin-2-yl)-2-(3,5-difluorophenyl)ethyl)-2-((3bS,4aR)-3-(difluoromethyl)-5,5-difluoro-3b,4,4a,5-tetrahydro-1H-cyclopropa[3,4]cyclopenta[1,2-c]pyrazol-1-yl)acetamide]", "values": [{"measurement": "EC50", "setting": "[1]", "result": 0.79, "unit": "nM"}, {"measurement": "CC50 at 4 day", "setting": "[2]", "result": "> 500", "unit": "nM"}]}, {"compound": "Cn1nc(NS(C)(=O)=O)c2c(Cl)ccc(-n3c([C@H](Cc4cc(F)cc(F)c4)NC(=O)Cn4nc(C(F)F)c5c4C(F)(F)[C@@H]4C[C@H]54)nc4cc(-c5ccc(F)c(C#N)c5F)ccc4c3=O)c21", "note": "[Example 170, N-((S)-1-(3-(4-chloro-1-methyl-3-(methylsulfonamido)-1H-indazol-7-yl)-7-(3-cyano-2,4-difluorophenyl)-4-oxo-3,4-dihydroquinazolin-2-yl)-2-(3,5-difluorophenyl)ethyl)-2-((3bS,4aR)-3-(difluoromethyl)-5,5-difluoro-3b,4,4a,5-tetrahydro-1H-cyclopropa[3,4]cyclopenta[1,2-c]pyrazol-1-yl)acetamide]", "values": [{"measurement": "EC50", "setting": "[1]", "result": 0.58, "unit": "nM"}, {"measurement": "CC50 at 4 day", "setting": "[2]", "result": "> 500", "unit": "nM"}]}, {"compound": "Cn1nc(NS(C)(=O)=O)c2c(Cl)ccc(-n3c([C@H](Cc4cc(F)cc(F)c4)NC(=O)Cn4nc(C(F)F)c5c4C(F)(F)[C@@H]4C[C@H]54)nc4cc(-c5ccccn5)ccc4c3=O)c21", "note": "(atropisomer, axis not shown; (aR)) [Example 87, N-((S)-1-(3-(4-chloro-1-methyl-3-(methylsulfonamido)-1H-indazol-7-yl)-4-oxo-7-(pyridin-2-yl)-3,4-dihydroquinazolin-2-yl)-2-(3,5-difluorophenyl)ethyl)-2-((3bS,4aR)-3-(difluoromethyl)-5,5-difluoro-3b,4,4a,5-tetrahydro-1H-cyclopropa[3,4]cyclopenta[1,2-c]pyrazol-1-yl)acetamide]", "values": [{"measurement": "EC50", "setting": "[1]", "result": 0.09, "unit": "nM"}, {"measurement": "CC50 at 4 day", "setting": "[2]", "result": "> 1000", "unit": "nM"}]}, {"compound": "Cn1nc(NS(C)(=O)=O)c2c(Cl)ccc(-n3c([C@H](Cc4cc(F)cc(F)c4)NC(=O)Cn4nc(C(F)F)cc4C(F)F)nc4cc(-c5ccccc5F)ccc4c3=O)c21", "note": "[Example 154, (S)-2-(3,5-bis(difluoromethyl)-1H-pyrazol-1-yl)-N-(1-(3-(4-chloro-1-methyl-3-(methylsulfonamido)-1H-indazol-7-yl)-7-(2-fluorophenyl)-4-oxo-3,4-dihydroquinazolin-2-yl)-2-(3,5-difluorophenyl)ethyl)acetamide]", "values": [{"measurement": "EC50", "setting": "[1]", "result": 4.8, "unit": "nM"}, {"measurement": "CC50 at 4 day", "setting": "[2]", "result": "> 1000", "unit": "nM"}]}, {"compound": "Cc1cc(C)nc(-c2ccc3c(=O)n(-c4ccc(Cl)c5c(NS(=O)(=O)C6CC6)nn(CC(F)F)c45)c([C@H](Cc4cc(F)cc(F)c4)NC(=O)Cn4nc(C(F)F)c5c4C(F)(F)[C@@H]4C[C@H]54)nc3c2)n1", "note": "(atropisomer, axis not shown; (aR)) [Example 129, N-((S)-1-(3-(4-chloro-3-(cyclopropanesulfonamido)-1-(2,2-difluoroethyl)-1H-indazol-7-yl)-7-(4,6-dimethylpyrimidin-2-yl)-4-oxo-3,4-dihydroquinazolin-2-yl)-2-(3,5-difluorophenyl)ethyl)-2-((3bS,4aR)-3-(difluoromethyl)-5,5-difluoro-3b,4,4a,5-tetrahydro-1H-cyclopropa[3,4]cyclopenta[1,2-c]pyrazol-1-yl)acetamide]", "values": [{"measurement": "EC50", "setting": "[1]", "result": 0.095, "unit": "nM"}, {"measurement": "CC50 at 4 day", "setting": "[2]", "result": "> 500", "unit": "nM"}]}, {"compound": "Cn1nc(NS(C)(=O)=O)c2c(Cl)ccc(-n3c([C@H](Cc4cc(F)cc(F)c4)NC(=O)Cn4nc(C(F)F)c5c4C(F)(F)[C@@H]4C[C@H]54)nc4cc(-c5ccc(Cl)c(C(=O)O)c5)ccc4c3=O)c21", "note": "(atropisomer, axis not shown; (aR)) [Example 57]", "values": [{"measurement": "EC50", "setting": "[1]", "result": 17, "unit": "nM"}, {"measurement": "CC50 at 4 day", "setting": "[2]", "result": "> 1000", "unit": "nM"}]}, {"compound": "CCS(=O)(=O)c1cccc(-c2ccc3c(=O)n(-c4ccc(Cl)c5c(NS(C)(=O)=O)nn(C)c45)c([C@H](Cc4cc(F)cc(F)c4)NC(=O)Cn4nc(C(F)F)c5c4C(F)(F)[C@@H]4C[C@H]54)nc3c2)c1", "note": "(atropisomer, axis not shown; (aR)) [Example 121, N-((S)-1-(3-(4-chloro-1-methyl-3-(methylsulfonamido)-1H-indazol-7-yl)-7-(3-(ethylsulfonyl)phenyl)-4-oxo-3,4-dihydroquinazolin-2-yl)-2-(3,5-difluorophenyl)ethyl)-2-((3bS,4aR)-3-(difluoromethyl)-5,5-difluoro-3b,4,4a,5-tetrahydro-1H-cyclopropa[3,4]cyclopenta[1,2-c]pyrazol-1-yl)acetamide]", "values": [{"measurement": "EC50", "setting": "[1]", "result": 0.11, "unit": "nM"}, {"measurement": "CC50 at 4 day", "setting": "[2]", "result": "> 500", "unit": "nM"}]}, {"compound": "Cn1nc(NS(C)(=O)=O)c2c(Cl)ccc(-n3c([C@H](Cc4cc(F)cc(F)c4)NC(=O)Cn4nc(C(F)F)c5c4C(F)(F)[C@@H]4C[C@H]54)nc4cc(-c5ccc6c7c(ccnc57)CCO6)ccc4c3=O)c21", "note": "(atropisomer, axis not shown; (aR)) [Example 82, N-((S)-1-(3-(4-chloro-1-methyl-3-(methylsulfonamido)-1H-indazol-7-yl)-7-(2,3-dihydropyrano[4,3,2-de]quinolin-7-yl)-4-oxo-3,4-dihydroquinazolin-2-yl)-2-(3,5-difluorophenyl)ethyl)-2-((3bS,4aR)-3-(difluoromethyl)-5,5-difluoro-3b,4,4a,5-tetrahydro-1H-cyclopropa[3,4]cyclopenta[1,2-c]pyrazol-1-yl)acetamide]", "values": [{"measurement": "EC50", "setting": "[1]", "result": 7, "unit": "nM"}, {"measurement": "CC50 at 4 day", "setting": "[2]", "result": "> 1000", "unit": "nM"}]}, {"compound": "COc1ccccc1-c1ccc2c(=O)n(-c3ccc(S(=O)(=O)N4CCOCC4)cc3)c([C@H](Cc3cc(F)cc(F)c3)NC(=O)Cn3ccc(C4CC4)n3)nc2c1", "note": "[Example 142, (S)-2-(3-cyclopropyl-1H-pyrazol-1-yl)-N-(2-(3,5-difluorophenyl)-1-(7-(2-methoxyphenyl)-3-(4-(morpholinosulfonyl)phenyl)-4-oxo-3,4-dihydroquinazolin-2-yl)ethyl)acetamide]", "values": [{"measurement": "EC50", "setting": "[1]", "result": 66, "unit": "nM"}, {"measurement": "CC50 at 4 day", "setting": "[2]", "result": "> 1000", "unit": "nM"}]}, {"compound": "Cc1cc(Cl)ccc1-c1ccc2c(=O)n(-c3ccc(Cl)c4c(NS(C)(=O)=O)nn(C)c34)c([C@H](Cc3cc(F)cc(F)c3)NC(=O)Cn3nc(C(F)F)c4c3C(F)(F)[C@@H]3C[C@H]43)nc2c1", "note": "(atropisomer, axis not shown; (aR)) [Example 90]", "values": [{"measurement": "EC50", "setting": "[1]", "result": 5.7, "unit": "nM"}, {"measurement": "CC50 at 4 day", "setting": "[2]", "result": "> 1000", "unit": "nM"}]}, {"compound": "Cc1cccc(-c2ccc3c(=O)n(-c4ccc(Cl)c5c(NS(C)(=O)=O)nn(CC(F)F)c45)c([C@H](Cc4cc(F)cc(F)c4)NC(=O)Cn4nc(C(F)F)c5c4C(F)(F)[C@@H]4C[C@H]54)nc3c2)n1", "note": "[Example 175, N-((S)-1-(3-(4-chloro-1-(2,2-difluoroethyl)-3-(methylsulfonamido)-1H-indazol-7-yl)-7-(6-methylpyridin-2-yl)-4-oxo-3,4-dihydroquinazolin-2-yl)-2-(3,5-difluorophenyl)ethyl)-2-((3bS,4aR)-3-(difluoromethyl)-5,5-difluoro-3b,4,4a,5-tetrahydro-1H-cyclopropa[3,4]cyclopenta[1,2-c]pyrazol-1-yl)acetamide]", "values": [{"measurement": "EC50", "setting": "[1]", "result": 0.08, "unit": "nM"}, {"measurement": "CC50 at 4 day", "setting": "[2]", "result": "> 500", "unit": "nM"}]}]}
